Columns and labels:
[1] = test system: subjects with MDD at imminent risk for suicide; experiment: MADRS total score, Study […]2001 (change, sustained response, response, remission); type: in vivo, human; conditions: for MADRS total score change, Diff. of LS Means (minus Placebo): ANCOVA LOCF; for MADRS total score, change from baseline, mean / MADRS total score, change from baseline, median / MADRS total score, mean / MADRS total score, median: LOCF, ITT N = 35
From the text: Primary efficacy variable/Primary Time point: Change from baseline (Day 1, predose) to Day 1, 4-hours postdose in MADRS total score. The MADRS consists of 10 items that cover all of the core depressive symptoms, with each item scoring from 0 (item is not present or is normal) to 6 (severe or continuous presence of the symptom). A higher score represents a more severe condition.
(§1) • a. Changes from baseline to Day 2 and Day 25 for the MADRS total score • b. Changes from baseline to Day 1 4-hours postdose, Day 2 and Day 25 for the MADRS Suicide Item • c. Changes from baseline to Day 1 4-hours postdose, Day 2, and Day 25 for the clinical global judgment of suicide risk from the Suicide Ideation and Behavior Assessment Tool (SIBAT) • d. Sustained response (Onset of Clinical Response) defined as at least 50% reduction from baseline in MADRS total score with onset on Day 1 that is maintained through the end of the double-blind phase (Day 25) • e. Changes from baseline to Day 1 4-hours postdose, Day 2, and Day 25 for the Beck Scale for Suicidal Ideation (BSS) • f. Changes from baseline to Day 1 4-hours postdose and Day 25 for the Beck Hopelessness Scale
The primary efficacy endpoint is the change in MADRS total score from baseline to Day 1: 4-hours postdose. MADRS total scores range from 0 to 60. […] As this is a phase 2a proof-of-concept study, statistical significance is based on a two-sided alpha level of 0.20. All p-values presented in this document are two-sided.
Sustained response is defined as at least 50% reduction from baseline in MADRS total score with onset on Day 1: 4 hours postdose that is maintained through the end of the double-blind phase (Day 25). Four subjects in the esketamine 84 mg group and 2 subjects in the placebo group had sustained response throughout the double-blind phase.

[2] = test system: subjects with MDD at imminent risk for suicide; experiment: MADRS suicide item, Study […]2001; type: in vivo, human; conditions: 84 mg
From the text: as §1
Results of the change from baseline over time for the suicide item from the MADRS assessment can be found in Attachment 1.

[3] = test system: subjects with MDD at imminent risk for suicide; conditions: human, in vivo, other: intranasal, 84 mg
Procedure: Transient blood pressure increases peaked for the esketamine group at approximately 40 minutes post dose with the maximum mean increases (across all dosing days) in systolic BP being 8.7 in the placebo group and 16.7 in the esketamine 84 mg group. The maximum mean increases (across all dosing days) in diastolic BP were 7.6 in the placebo group and 11.9 in the esketamine 84 mg group. […] See, FIGS. 46 and 47.

[4] = test system: patients with treatment-resistant depression (TRD); experiment: Vital signs (blood pressure, heart rate), phase 2 dose-response study in TRD; type: in vivo, human
[5] = test system: adult subjects with TRD; conditions: human, in vivo, other: intranasal
Procedure: The MOAA/S was used to measure treatment-emergent sedation, with correlation to levels of sedation defined by the American Society of Anesthesiologists (ASA) continuum. The MOAA/S scores range from 0=no response to painful stimulus (corresponds to ASA continuum for general anesthesia) to 5=readily responds to name spoken in normal tone (awake; corresponds to ASA continuum for minimal sedation).
On each intranasal dosing day, the MOAA/S was performed every 15 minutes from pre-dose to t=+1.5 hours post-dose. If the score was ≤3 at any time during the 1.5 hours post-dose interval, the MOAA/S was performed every 5 minutes until a score of 4 is reached (at which point a frequency of every 15 minutes can be resumed until t=+1.5 hours post dose). […] For subjects with a score of 4, the assessment was repeated every 15 minutes. […]
The Modified Observer's Assessment of Alertness/Sedation (MOAA/S) was used to measure treatment-emergent sedation with correlation to levels of sedation defined by the American Society of Anesthesiologists (ASA) continuum. The MOAA/S scores ranged from 0 (No response to painful stimulus; corresponds to ASA continuum for general anesthesia) to 5 (Readily responds to name spoken in normal tone [awake]; corresponding to ASA continuum for minimal sedation).

[6] = test system: subjects with TRD; conditions: human, in vivo, other: intranasal
Procedure: (§2) The Clinician Administered Dissociative States Scale (CADSS) was measured prior to the start of each dose, at 40 minutes, and 1.5 hours postdose.

[7] = test system: subjects with TRD; conditions: human, in vivo, other: intranasal; remark: listed apart in the source
Procedure: as §2

## CN[C@]1(c2ccccc2Cl)CCCCC1=O [esketamine, (S)-2-(2-chlorophenyl)-2-(methylamino)cyclohexanone]
[1]; 84 mg, Day 1 (DB): 4 H
  MADRS total score change, Diff. of LS Means (minus Placebo): −5.3
  MADRS total score, change from baseline, mean: −13.4
  MADRS total score, change from baseline, median: −14.0
  MADRS total score, mean: 25.1
  MADRS total score, median: 23.0
[1]; 84 mg, Day 2 (DB)
  MADRS total score change, Diff. of LS Means (minus Placebo): −7.2
  MADRS total score, change from baseline, mean: −19.3
  MADRS total score, change from baseline, median: −19.0
  MADRS total score, mean: 19.2
  MADRS total score, median: 18.0
[1]; 84 mg, End Point (DB)
  MADRS total score change, Diff. of LS Means (minus Placebo): −4.5
  MADRS total score, change from baseline, mean: −26.4
  MADRS total score, change from baseline, median: −25.0
  MADRS total score, mean: 12.1
  MADRS total score, median: 8.0
[1]; 84 mg, ITT
  Day 25 sustained response based on MADRS total score: No, subjects (%): 88.2%
[1]; 84 mg, at least 50 percent reduction with onset on Day 1 maintained through Day 25, ITT
  Day 25 sustained response based on MADRS total score: Yes, subjects (%): 11.8%
[1]; […]2001, 84 mg
  Subjects with sustained response (≥50% MADRS reduction from Day 1 4 h through Day 25): Four
[1]; […]2001, 84 mg, Day 1: 4-hours postdose
  MADRS total score: mean change from baseline (SD): −13.4 (9.03)
[1]; […]2001, 84 mg, Day 2 (DB)
  MADRS total score: mean change from baseline (SD): −19.3 (12.02)
[1]; […]2001, 84 mg, End Point (DB)
  MADRS total score: mean change from baseline (SD): −26.4 (14.52)
[1]; […]2001, 84 mg, double-blind phase
  Subjects who discontinued due to lack of efficacy: 1 subject
[1]; […]2001, esketamine 84 mg, Day 1, 4-hours postdose
  MADRS total score: least-square mean difference (SE) from placebo, ANCOVA: −5.3 (2.10)
[2]; Day 1 (DB): 4 H, LOCF, N 35
  MADRS suicide item (Suicidal Thoughts), Med: 2.0
  MADRS suicide item, change from baseline, Med: −3.0
[2]; Day 1(DB): 4 H, N 35
  MADRS suicide item (Suicidal Thoughts), Med: 2.0
  MADRS suicide item, change from baseline, Med: −3.0
[2]; Day 2(DB) LOCF, N 35
  MADRS suicide item (Suicidal Thoughts), Med: 2.0
  MADRS suicide item, change from baseline, Med: −3.0
[2]; Day 2(DB), N 35
  MADRS suicide item (Suicidal Thoughts), Med: 2.0
  MADRS suicide item, change from baseline, Med: −3.0
[2]; Day 3(DB) LOCF, N 35
  MADRS suicide item (Suicidal Thoughts), Med: 2.0
  MADRS suicide item, change from baseline, Med: −4.0
[2]; Day 3(DB), N 32
  MADRS suicide item (Suicidal Thoughts), Med: 2.0
  MADRS suicide item, change from baseline, Med: −4.0
[2]; Day 4(DB) LOCF, N 35
  MADRS suicide item (Suicidal Thoughts), Med: 1.0
  MADRS suicide item, change from baseline, Med: −4.0
[2]; Day 4(DB), N 24
  MADRS suicide item (Suicidal Thoughts), Med: 1.0
  MADRS suicide item, change from baseline, Med: −4.0
[2]; Day 5(DB) LOCF, N 35
  MADRS suicide item (Suicidal Thoughts), Med: 1.0
  MADRS suicide item, change from baseline, Med: −4.0
[2]; Day 5(DB), N 21
  MADRS suicide item (Suicidal Thoughts), Med: 0.0
  MADRS suicide item, change from baseline, Med: −4.0
[2]; Day 8(DB) LOCF, N 35
  MADRS suicide item (Suicidal Thoughts), Med: 1.0
  MADRS suicide item, change from baseline, Med: −4.0
[2]; Day 8(DB), N 31
  MADRS suicide item (Suicidal Thoughts), Med: 1.0
  MADRS suicide item, change from baseline, Med: −4.0
[2]; Day 11(DB) LOCF, N 35
  MADRS suicide item (Suicidal Thoughts), Med: 1.0
  MADRS suicide item, change from baseline, Med: −4.0
[2]; Day 11(DB), N 25
  MADRS suicide item (Suicidal Thoughts), Med: 0.0
  MADRS suicide item, change from baseline, Med: −4.0
[2]; Day 15(DB) LOCF, N 35
  MADRS suicide item (Suicidal Thoughts), Med: 1.0
  MADRS suicide item, change from baseline, Med: −4.0
[2]; Day 15(DB), N 29
  MADRS suicide item (Suicidal Thoughts), Med: 1.0
  MADRS suicide item, change from baseline, Med: −4.0
[2]; Day 18(DB) LOCF, N 35
  MADRS suicide item (Suicidal Thoughts), Med: 1.0
  MADRS suicide item, change from baseline, Med: −4.0
[2]; Day 18(DB), N 23
  MADRS suicide item (Suicidal Thoughts), Med: 1.0
  MADRS suicide item, change from baseline, Med: −4.0
[2]; Day 22(DB) LOCF, N 35
  MADRS suicide item (Suicidal Thoughts), Med: 0.0
  MADRS suicide item, change from baseline, Med: −4.0
[2]; Day 22(DB), N 28
  MADRS suicide item (Suicidal Thoughts), Med: 0.0
  MADRS suicide item, change from baseline, Med: −4.0
[2]; Day 25(DB): 4 H, N 24
  MADRS suicide item (Suicidal Thoughts), Med: 0.0
  MADRS suicide item, change from baseline, Med: −4.5
[2]; Day 25(DB): Predose LOCF, N 35
  MADRS suicide item (Suicidal Thoughts), Med: 0.0
  MADRS suicide item, change from baseline, Med: −4.0
[2]; Day 25(DB): Predose, N 24
  MADRS suicide item (Suicidal Thoughts), Med: 0.0
  MADRS suicide item, change from baseline, Med: −4.5
[2]; Day 32(FU) LOCF, N 26
  MADRS suicide item (Suicidal Thoughts), Med: 0.0
  MADRS suicide item, change from baseline, Med: −4.0
[2]; Day 32(FU), N 26
  MADRS suicide item (Suicidal Thoughts), Med: 0.0
  MADRS suicide item, change from baseline, Med: −4.0
[2]; Day 39(FU) LOCF, N 27
  MADRS suicide item (Suicidal Thoughts), Med: 0.0
  MADRS suicide item, change from baseline, Med: −5.0
[2]; Day 39(FU), N 26
  MADRS suicide item (Suicidal Thoughts), Med: 0.0
  MADRS suicide item, change from baseline, Med: −5.0
[2]; Day 46(FU) LOCF, N 27
  MADRS suicide item (Suicidal Thoughts), Med: 0.0
  MADRS suicide item, change from baseline, Med: −4.0
[2]; Day 46(FU), N 25
  MADRS suicide item (Suicidal Thoughts), Med: 0.0
  MADRS suicide item, change from baseline, Med: −4.0
[2]; Day 53(FU) LOCF, N 27
  MADRS suicide item (Suicidal Thoughts), Med: 0.0
  MADRS suicide item, change from baseline, Med: −4.0
[2]; Day 53(FU), N 24
  MADRS suicide item (Suicidal Thoughts), Med: 0.0
  MADRS suicide item, change from baseline, Med: −5.0
[2]; Day 67(FU) LOCF, N 27
  MADRS suicide item (Suicidal Thoughts), Med: 0.0
  MADRS suicide item, change from baseline, Med: −4.0
[2]; Day 67(FU), N 26
  MADRS suicide item (Suicidal Thoughts), Med: 0.0
  MADRS suicide item, change from baseline, Med: −4.0
[2]; Day 81(FU), N 24
  MADRS suicide item (Suicidal Thoughts), Med: 0.0
  MADRS suicide item, change from baseline, Med: −5.0
[2]; End Point(DB), N 35
  MADRS suicide item (Suicidal Thoughts), Med: 0.0
  MADRS suicide item, change from baseline, Med: −4.0
[2]; End Point(FU), N 27
  MADRS suicide item (Suicidal Thoughts), Med: 0.0
  MADRS suicide item, change from baseline, Med: −5.0
[3]
  Blood pressure returning to normal range by (post dose): ≤ 2 h
[3]; 40 minutes
  Maximum mean increase in diastolic BP (across all dosing days): 11.9
  Maximum mean increase in systolic BP (across all dosing days): 16.7
[4]
  Diastolic blood pressure: maximum mean change on dosing days: 10.3 mmHg
  Elevated blood pressure returned to the normal range by (post-dose): ≤ 2 h
  Heart rate: maximum mean change on dosing days: 9.4 bpm
  Systolic blood pressure: maximum mean change on dosing days: 19.0 mmHg
[4]; 10 or 40 minutes post-dose
  Maximum diastolic blood pressure value: 115 mmHg
  Maximum systolic blood pressure value: 199 mmHg
[5]
  Sedation (MOAA/S) resolved by (postdose): ≤ 1.5 h
[6]
  CADSS dissociative/perceptual change symptoms resolved by (post dose): ≤ 1.5 h
[7]
  CADSS dissociative and perceptual change symptoms resolved by (postdose): ≤ 1.5 h
